What was measured:
Format in all cases: in vivo
transplanted rice = assay: Test Example 1: preemergence treatment under submerged conditions, effect on crop; settings: dose 2.52 g/a
Method in brief: (§1)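 Alluvial soil was flooded to 4 cm, sown with barnyardgrass, bulrush and ducksalad, and planted with 2.5-leaf rice seedlings. On the seeding day, water-diluted emulsifiable concentrates were applied to the water surface at set doses (g/a). After three weeks in a 25 to 30° C. greenhouse, mortality was scored 0–5.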

redroot pigweed [1] = assay: Test Example 3: herbicidal effects in soil treatment; settings: dose 3.2 g/a
Method in brief: (§2)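 Seeds were sown in sterilized diluvial soil and covered with about 1.5 cm of soil. Compounds, formulated as emulsifiable concentrates and diluted with water, were sprayed evenly over the soil surface at set doses in g/a. Herbicidal effect was scored on a rating scale three weeks later.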

Italian ryegrass [2] = assay: as above; settings: dose 3.2 g/a
Method in brief: as §2

giant foxtail [3] = assay: as above; settings: dose 3.2 g/a
Method in brief: as §2

velvetleaf [4] = assay: as above; settings: dose 3.2 g/a
Method in brief: as §2

barnyardgrass [5] = assay: as above; settings: dose 3.2 g/a
Method in brief: as §2

common chickweed [6] = assay: as above; settings: dose 3.2 g/a
Method in brief: as §2

common ragweed [7] = assay: as above; settings: dose 3.2 g/a
Method in brief: as §2

water foxtail [8] = assay: as above; settings: dose 3.2 g/a
Method in brief: as §2

posumbu knotweed [9] = assay: as above; settings: dose 3.2 g/a
Method in brief: as §2

large crabgrass [10] = assay: as above; settings: dose 3.2 g/a
Method in brief: as §2

common lambsquater [11] = assay: as above; settings: dose 3.2 g/a
Method in brief: as §2

redroot pigweed [12] = assay: Test Example 4: herbicidal effect in foliage treatment; settings: dose 3.2 g/a, three weeks after application
Method in brief: (§3)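 A uniform foliar spray of emulsifiable concentrate, diluted with water to give the stated g/a dose, was applied to plants raised for 14 days from seed in sterilized diluvial soil at 25 to 30° C. Herbicidal effects were scored three weeks later.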

Italian ryegrass [13] = assay: as above; settings: dose 3.2 g/a, three weeks after application
Method in brief: as §3

giant foxtail [14] = assay: as above; settings: dose 3.2 g/a, three weeks after application
Method in brief: as §3

beadstraw = assay: as above; settings: dose 3.2 g/a, three weeks after application
Method in brief: as §3

velvetleaf [15] = assay: as above; settings: dose 3.2 g/a, three weeks after application
Method in brief: as §3

barnyardgrass [16] = assay: as above; settings: dose 3.2 g/a, three weeks after application
Method in brief: as §3

common chickweed [17] = assay: as above; settings: dose 3.2 g/a, three weeks after application
Method in brief: as §3

common ragweed [18] = assay: as above; settings: dose 3.2 g/a, three weeks after application
Method in brief: as §3

water foxtail [19] = assay: as above; settings: dose 3.2 g/a, three weeks after application
Method in brief: as §3

posumbu knotweed [20] = assay: as above; settings: dose 3.2 g/a, three weeks after application
Method in brief: as §3

large crabgrass [21] = assay: as above; settings: dose 3.2 g/a, three weeks after application
Method in brief: as §3

common lambsquater [22] = assay: as above; settings: dose 3.2 g/a, three weeks after application
Method in brief: as §3

barnyardgrass [23] = assay: Test Example 2: herbicidal effects during the vegetation period under submerged conditions; settings: treatment during the vegetation period under submerged conditions; dose 2.52 g/a
Method in brief: (§4)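 Barnyardgrass, bulrush and ducksalad were co-sown in alluvial soil flooded to 4 cm and grown in a greenhouse at 25 to 30° C. At the 1- or 2-leaf stage, water-diluted emulsifiable concentrates went onto the water surface at set doses (g/a). Herbicidal effect was scored three weeks later on a graded scale.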

ducksalad [24] = assay: as above; settings: treatment during the vegetation period under submerged conditions; dose 2.52 g/a
Method in brief: as §4

bulrush [25] = assay: as above; settings: treatment during the vegetation period under submerged conditions; dose 2.52 g/a
Method in brief: as §4

barnyardgrass [26] = assay: Test Example 1: herbicidal effects in preemergence treatment under submerged conditions; settings: dose 2.52 g/a
Method in brief: as §1

ducksalad [27] = assay: as above; settings: dose 2.52 g/a
Method in brief: as §1

bulrush [28] = assay: as above; settings: dose 2.52 g/a
Method in brief: as §1

Row | SMILES | a: transplanted rice, effect on crop (evaluation scale 0-5) (transplanted rice) | K: redroot pigweed, herbicidal effect (evaluation scale 0-5) (redroot pigweed [1]) | H: Italian ryegrass, herbicidal effect (evaluation scale 0-5) (Italian ryegrass [2]) | E: giant foxtail, herbicidal effect (evaluation scale 0-5) (giant foxtail [3]) | I: velvetleaf, herbicidal effect (evaluation scale 0-5) (velvetleaf [4]) | A: barnyardgrass, herbicidal effect (evaluation scale 0-5) (barnyardgrass [5]) | N: common chickweed, herbicidal effect (evaluation scale 0-5) (common chickweed [6]) | J: common ragweed, herbicidal effect (evaluation scale 0-5) (common ragweed [7]) | G: water foxtail, herbicidal effect (evaluation scale 0-5) (water foxtail [8]) | M: posumbu knotweed, herbicidal effect (evaluation scale 0-5) (posumbu knotweed [9]) | D: large crabgrass, herbicidal effect (evaluation scale 0-5) (large crabgrass [10]) | L: common lambsquater, herbicidal effect (evaluation scale 0-5) (common lambsquater [11]) | K: redroot pigweed, herbicidal effect (redroot pigweed [12]) | H: Italian ryegrass, herbicidal effect (Italian ryegrass [13]) | E: giant foxtail, herbicidal effect (giant foxtail [14]) | O: beadstraw, herbicidal effect (beadstraw) | I: velvetleaf, herbicidal effect (velvetleaf [15]) | A: barnyardgrass, herbicidal effect (barnyardgrass [16]) | N: common chickweed, herbicidal effect (common chickweed [17]) | J: common ragweed, herbicidal effect (common ragweed [18]) | also measured
1 | CCOC(=O)N(c1ccccc1CN1COC(C)(CC)CC1=O)S(=O)(=O)C(F)(F)F (stereo not drawn) [II-42] | 0 (mortality of less than 5% (almost ineffective)) | 3 (mortality of at least 40% and less than 70%) | 5 (mortality of 90% or above (nearly complete death)) | 1 (mortality of at least 5% and less than 20%) | 5 (mortality of 90% or above (nearly complete death)) | 5 (mortality of 90% or above (nearly complete death)) | 5 (mortality of 90% or above (nearly complete death)) | 4 (mortality of at least 70% and less than 90%) | 5 (mortality of 90% or above (nearly complete death)) | 4 (mortality of at least 70% and less than 90%) | 5 (mortality of 90% or above (nearly complete death)) | 0 (mortality of less than 5% (almost ineffective)) | 0 (mortality of less than 5% (almost ineffective)) | 3 (mortality of at least 40% and less than 70%) | 5 (mortality of 90% or above (nearly complete death)) | 3 (mortality of at least 40% and less than 70%) | 5 (mortality of 90% or above (nearly complete death)) | 5 (mortality of 90% or above (nearly complete death)) | 4 (mortality of at least 70% and less than 90%) | 3 (mortality of at least 40% and less than 70%) | G: water foxtail, herbicidal effect (water foxtail [19]): 5 (mortality of 90% or above (nearly complete death)); M: posumbu knotweed, herbicidal effect (posumbu knotweed [20]): 0 (mortality of less than 5% (almost ineffective)); D: large crabgrass, herbicidal effect (large crabgrass [21]): 3 (mortality of at least 40% and less than 70%); L: common lambsquater, herbicidal effect (common lambsquater [22]): 3 (mortality of at least 40% and less than 70%); A: barnyardgrass, herbicidal effect (evaluation scale 0-5) (barnyardgrass [23]): 5 (mortality of 90% or above (nearly complete death)); C: ducksalad, herbicidal effect (evaluation scale 0-5) (ducksalad [24]): 5 (mortality of 90% or above (nearly complete death)); B: bulrush, herbicidal effect (evaluation scale 0-5) (bulrush [25]): 5 (mortality of 90% or above (nearly complete death)); A: barnyardgrass, herbicidal effect (evaluation scale 0-5) (barnyardgrass [26]): 5 (mortality of 90% or above (nearly complete death)); C: ducksalad, herbicidal effect (evaluation scale 0-5) (ducksalad [27]): 5 (mortality of 90% or above (nearly complete death)); B: bulrush, herbicidal effect (evaluation scale 0-5) (bulrush [28]): 5 (mortality of 90% or above (nearly complete death))
2 | CCC1(C)CC(=O)N(Cc2ccccc2N(C(=O)OCC(C)C)S(=O)(=O)C(F)(F)F)CO1 (stereo not drawn) [II-43] | 0 (mortality of less than 5% (almost ineffective)) | 2 (mortality of at least 20% and less than 40%) | 5 (mortality of 90% or above (nearly complete death)) | 2 (mortality of at least 20% and less than 40%) | 5 (mortality of 90% or above (nearly complete death)) | 4 (mortality of at least 70% and less than 90%) | 5 (mortality of 90% or above (nearly complete death)) | 3 (mortality of at least 40% and less than 70%) | 5 (mortality of 90% or above (nearly complete death)) | 4 (mortality of at least 70% and less than 90%) | 3 (mortality of at least 40% and less than 70%) | 5 (mortality of 90% or above (nearly complete death)) | 0 (mortality of less than 5% (almost ineffective)) | 4 (mortality of at least 70% and less than 90%) | 4 (mortality of at least 70% and less than 90%) | 4 (mortality of at least 70% and less than 90%) | 5 (mortality of 90% or above (nearly complete death)) | 5 (mortality of 90% or above (nearly complete death)) | 3 (mortality of at least 40% and less than 70%) | 3 (mortality of at least 40% and less than 70%) | G: water foxtail, herbicidal effect (water foxtail [19]): 5 (mortality of 90% or above (nearly complete death)); M: posumbu knotweed, herbicidal effect (posumbu knotweed [20]): 0 (mortality of less than 5% (almost ineffective)); D: large crabgrass, herbicidal effect (large crabgrass [21]): 1 (mortality of at least 5% and less than 20%); L: common lambsquater, herbicidal effect (common lambsquater [22]): 2 (mortality of at least 20% and less than 40%); A: barnyardgrass, herbicidal effect (evaluation scale 0-5) (barnyardgrass [23]): 5 (mortality of 90% or above (nearly complete death)); C: ducksalad, herbicidal effect (evaluation scale 0-5) (ducksalad [24]): 5 (mortality of 90% or above (nearly complete death)); B: bulrush, herbicidal effect (evaluation scale 0-5) (bulrush [25]): 5 (mortality of 90% or above (nearly complete death)); A: barnyardgrass, herbicidal effect (evaluation scale 0-5) (barnyardgrass [26]): 5 (mortality of 90% or above (nearly complete death)); C: ducksalad, herbicidal effect (evaluation scale 0-5) (ducksalad [27]): 5 (mortality of 90% or above (nearly complete death)); B: bulrush, herbicidal effect (evaluation scale 0-5) (bulrush [28]): 5 (mortality of 90% or above (nearly complete death))

— US20120029187A1, “HALOALKYLSULFONANILIDE DERIVATIVE” (Nissan Chemical Industries, Ltd., priority 2009, published 2012)
